The values that follow come from patent US4061760A, “Method for using 3-substituted-5-phenyl-5-pyridyl hydantoins as antiarrhythmic agents” (priority 1976, dated 1977).

The conditions of data set [1]: cited from earlier work; for side effects / toxicity (in words): background.
Data set [2] in a line: in vivo. The note with it: mouse, in vivo, ip; LD50 and ED50 in mg/kg, i.p.; read-out: Therapeutic index. It counts as in vivo. As for the experimental part:
(§1) The test compounds were administered in varying intraperitoneal doses to groups consisting of 5 mice. Ten minutes after administration of a given dose of a compound, a mouse was transferred to a covered 300 ml glass beaker that contained a wad of cotton saturated with about 20 ml of chloroform. The animal was observed closely and removed from the beaker immediately after respiratory arrest. The heart was quickly exposed by making an incision through the abdomen, diaphragm, thorax and pericardium for visual inspection of ventricular rate and rhythm. Ventricular contractions were counted for 30 seconds. According to the procedure reported by Lawson, animals with ventricular rate not exceeding 100 contractions during the 30 second observation period were considered protected.

Data set [3] relates to ventricular rate and rhythm. The data set can be described thus: animal or person. Particulars: for ED50: Mus musculus, ip, 10 min, read-out: ED50 (95% CL). Type of data set: in vivo. As for the experimental part: as §1
A short description of data set [4]: in vivo. The note with it: ip. The source says: LD50 data were obtained by standard procedures known to the art.
For data set [5] the following is noted: Casagrande, quoted; cited from earlier work.

Each structure is given as a SMILES string. Some results are limits rather than exact numbers.

For `O=C1NC(=O)C(c2ccccc2)(c2ccccc2)N1` [DPH, 5,5-diphenyl-2,4-imidazolidinedione], in data set [1], the “side effects / toxicity (in words)” value is “dizziness, nausea, emesis, nystimus, and ataxia”. In addition, the “side effects at large doses (in words)” value in data set [1] (large doses) is on record as “atrio-ventricular blockage, bradycardia, or even cardiac arrest”.

For the compound `O=C1NC(c2ccccc2)(c2ccccn2)C(=O)N1CCCN1CCC(c2ccccc2)CC1` (stereo not shown) [Example 1, 3-[3-(4-phenyl-1-piperidyl)propyl]-5-phenyl-5-(2-pyridyl)hydantoin], in the data set “in vivo [2]”, the selectivity ratio was determined as 9. Also, the 50% effective dose (ED50) in data set [3] came out at 15.3 mg/kg. In the data set “in vivo [4]”, this compound came in with a median lethal dose (LD50) of 136 mg/kg.

Consider `O=C1NC(c2ccccc2)(c2ccccn2)C(=O)N1CCCN1CCC(O)(c2ccccc2)CC1` (stereo not shown) [Example 2, 3-[3-(4-hydroxy-4-phenyl-1-piperidyl)propyl]-5-phenyl-5-(2-pyridyl)hydantoin], for which the selectivity ratio in the data set “in vivo [2]” came to 3.4. Moreover, the ED50 in data set [3] is 19.2 mg/kg. In addition, in the data set “in vivo [4]”, the 50% lethal dose (LD50) stood at 65 mg/kg.

In the case of `O=C1NC(c2ccccc2)(c2cccnc2)C(=O)N1CCCN1CCC(c2ccccc2)CC1` (stereo not shown) [Example 4, 3-[3-(4-phenyl-1-piperidyl)propyl]-5-phenyl-5-(3-pyridyl)-hydantoin], the selectivity ratio in the data set “in vivo [2]” turned out to be 5. Besides, the 50% effective dose (ED50) in data set [3] was determined as 31 mg/kg. This compound also returned a median lethal dose (LD50) in “in vivo [4]” of 156 mg/kg.

As to `O=C1NC(c2ccccc2)(c2ccncc2)C(=O)N1CCCN1CCC(c2ccccc2)CC1` (stereo not shown) [Example 5, 3-[3-(4-phenyl-1-piperidyl)propyl]-5-phenyl-5-(4-pyridyl)hydantoin], in the data set “in vivo [2]”, the selectivity ratio came to 2.1. Also, the ED50 in data set [3] worked out at 28 mg/kg. The compound also gave an LD50 in “in vivo [4]” of 61 mg/kg.

In the case of `C=C[C@H]1C[N@@]2CC[C@H]1C[C@@H]2[C@@H](O)c1ccnc2ccc(OC)cc12` [I, quinidine], the “side effects / toxicity (in words)” value in data set [1] is recorded as “relatively toxic”.

With `O=C1NC(=O)C(c2ccccc2)(c2ccccn2)N1` (stereo not shown) [V, 5-phenyl-5-(2-pyridyl)hydantoin], in “in vivo [2]”, the selectivity ratio amounted to 1.16. In addition, the 50% effective dose (ED50) in data set [3] came to 160 mg/kg. This compound had an LD50 in “in vivo [4]” of 186 mg/kg.

For the compound `O=C1NC(=O)C(c2ccccc2)(c2cccnc2)N1` (stereo not shown) [VI, 5-phenyl-5-(3-pyridyl)hydantoin], the ED50 in data set [3] was more than 310 mg/kg. Moreover, in data set [3] (at 310 mg/kg, i.p.), the mice protected is listed as 2 of 5.

For `O=C1NC(=O)C(c2ccccc2)(c2ccncc2)N1` (stereo not shown) [VII, 5-phenyl-5-(4-pyridyl)hydantoin], the selectivity ratio in the data set “in vivo [2]” was found to be 1.17. In addition, the ED50 in data set [3] turned out to be 205 mg/kg. In addition, the LD50 in “in vivo [4]” was 240 mg/kg.

For the compound `CN(C)CCN1C(=O)NC(c2ccccc2)(c2cccnc2)C1=O` (stereo not drawn) [compound XXV, 3-(2-dimethylamino-ethyl)-5-phenyl-5β-pyridyl-hydantoin], the “therapeutic index clearly superior to that of quinidine (in words)” value in data set [5] is “had not been fulfilled”.

As to `CC(CN(C)C)CN1C(=O)NC(c2ccccc2)(c2cccnc2)C1=O` (stereo not drawn) [compound XXX, 3-(2-methyl-3-dimethylamino-propyl)-5-phenyl-5β-pyridyl-hydantoin], in data set [5], the “therapeutic index clearly superior to that of quinidine (in words)” value is “had not been fulfilled”.

Usually ED50 stands for the dose that gives a 50% effect, or the effect in half of the subjects. Usually LD50 stands for the dose at which mortality reaches 50%. Higher therefore signals a less toxic substance.
